From patent publication US9169285B2, “Methods for purifying steviol glycosides and uses of the same” (The Coca-Cola Company, priority 2011, dated 2015)
“Also recorded” adds a separate entry of the source.

Assays:
[1] = tested on: panelists; experiment: Sensory properties of steviol glycosides in acidified water (pH 3.0) at 500 mg/L, 20 panelists; type: in vivo, human; details: for Quality of sweet taste (comment) / Quality of sweet taste: number of panelists giving the comment / Overall evaluation: Satisfactory, number of panelists / Astringent taste: number of panelists detected the attribute / Bitter taste: number of panelists detected the attribute / Licorice taste: number of panelists detected the attribute / Sweet Aftertaste: number of panelists detected the attribute: 500 ppm (sucrose 10,000 ppm); for Astringent taste: number of panelists detected the attribute / Bitter taste: number of panelists detected the attribute / Licorice taste: number of panelists detected the attribute / Sweet Aftertaste: number of panelists detected the attribute: acidified water pH 3.0 by phosphoric acid, 20 panelists
Description: The sensory properties of Reb X were evaluated in acidified water (pH 3.0 by phosphoric acid) at 500 mg/L concentration by 20 panelists.

[2] = tested on: one experienced panelist; experiment: Taste evaluation of Reb X against Reb A and Reb D, controlled multi-sip and swallow taste method; type: in vivo, human; details: for Taste Properties: 500 ppm in citric buffer (pH 3.22)
Description: The taste properties of a sample of Reb X were studied against Rebaudioside A (Reb A) and Rebaudioside D (Reb D) samples. Reb A was obtained from Cargill (lot #1040) and Reb-D was obtained from PureCircle (lot #Nov. 3, 2008).
The samples were prepared at 500 ppm for sweetness evaluation by adding moisture compensated mass into a 100 mL sample of carbon-treated water and citric buffer solutions.
(§1) Citric buffer was prepared by mixing 1.171 g/L citric acid, 0.275 g/L sodium citrate and 0.185 g/L sodium benzoate with carbon-treated water, with a final pH of 3.22. The mixtures were moderately stirred at room temperature. The Reb X sample was then evaluated against the two control Reb A and Reb D samples in water and citric buffer at room temperature (RT) and at 4° C. in an ice bath by one experienced panelist for any tasting quality determinations using the controlled, multi-sip and swallow taste method shown below:
1. Take first sip (˜1.8 mL) of control and swallow. Wait for 15-25 sec, then take second sip of control and wait for 15-25 sec.
2. Take first sip of the experimental sample, wait for 15-25 sec, then take second sip. Compare to second sip of control.
3. Repeat steps #1 and #2 for the third and fourth sips of the control and experimental samples to confirm the initial finding.

[3] = tested on: one experienced taster; experiment: Isosweetness determination of Reb X in citric buffer against sucrose controls; type: in vivo, human
Description: (§2) The isosweetness levels of Reb X in a citric buffer system at room temperature and 4° C. were evaluated. A 600 ppm stock solution of Reb X was prepared by adding a mass of 0.15 g into a 250 mL sample of citric buffer (CB) solution. The mixture was moderately stirred at warmer temperature (up to ca. 52° C.) on a heated stirrer for about 15-20 minutes and then cooled. The citric buffer was prepared by adding 1.6 g citric acid, 0.6 g potassium citrate and 0.253 g sodium benzoate in 1 L of carbon-treated water. The pH of the mixture was 3.1. Seven diluted Reb X solutions at […], 25, 50, 100, 200, 300, 400 and 500 ppm were prepared by adding a 2.08, 4.17, 8.33, 16.67, 25.00, 33.33 and 41.67 mL Reb X stock solution, respectively, into each 50 mL solution of CB. The controls of 0.75%, 2%, 4%, 6%, 8%, 10% and 15% sucrose equivalence (SE) were also prepared by adding sugar (w/v) into the CB. The mixtures were moderately stirred and then ready for the isosweetness determination test. The Reb X samples were then evaluated against the control sugar samples in citric buffer at room temperature (RT) and 4° C. (in an ice bath) by one experienced taster for an isosweetness determination using the controlled, multi-sip and swallow taste method.

[4] = Solubility of the Reb X stock solution in citric buffer; type: physicochemical; details: Reb X 0.06% (w/v) in citric buffer, up to 52° C., ca. 15-20 minutes
Description: as §2

[5] = Taste comparison of Reb X and Reb A in beverage formulations; type: in vivo
[6] = tested on: semi-trained panel members; experiment: Sensory comparison of Reb X and Reb A, iso-sweet samples of 8% sucrose equivalent sweetness; type: in vivo, human
Description: To compare the sensory attributes between Reb X and Reb A, iso-sweet samples having 8% sucrose equivalent sweetness were made with filtered water as shown in Table 8. An 8% sugar solution in water at room temperature was used as a control. An 8% sugar solution in the acidified solution was used as the control. The samples prepared with filtered water were evaluated by 34 semi-trained panel members at room temperature. The samples prepared with acidified water were evaluated by 23 semi-trained panel members at room temperature. Samples were given to the panel members sequentially and coded with triple digit numbers. The order of sample presentation was randomized to avoid order of presentation bias. Water and unsalted crackers were provided in order to cleanse the palate. The panel members were asked to rate different attributes including sweetness onset, total sweetness, rounded sweetness, bitterness, acidity, leafy note, licorice, astringency, mouthfeel, mouth coating, sweet lingering, and bitter lingering. Samples were rated on a scale of zero (0) to ten (10), with zero indicating immediate onset, no intensity, watery/low viscosity, or very sharp peak, and ten indicating very delayed onset, high intensity, thick/high viscosity, or very round peak. One-way single factor ANOVA was used to analyze sensory results, where α=0.05.

[7] = tested on: panel of trained tasters; experiment: Reb X sweetness vs. concentration, matched to sucrose reference solutions; type: in vivo, human; details: Sweetness Equivalent (SE) 2.5%; Reb X 98% purity; water, room temperature
Description: 2.5%, 5.0%, 7.5%, and 10.0% sucrose solutions were prepared in neutral (7.0 pH) and acidified water (3.2 pH) as reference samples. Solutions containing Reb X (98% purity) were prepared to match the sweetness of each sucrose reference in neutral and acidified water. Samples were tasted and verified by a panel of trained tasters in water at room temperature.

[8] = Solubility studies of Reb X in carbon-treated water and citrate buffer; type: physicochemical
Description: as §1
The samples used to evaluate the taste properties in Example 2 were also used for solubility studies.

[9] = acidified water pH 3.0, 20 panelists

C=C1C[C@@]23CC[C@H]4[C@@](C)(CCC[C@@]4(C)C(=O)O[C@@H]4O[C@H](CO)[C@@H](O)[C@H](O)[C@H]4O)[C@@H]2CC[C@]1(O[C@@H]1O[C@H](CO)[C@@H](O)[C@H](O)[C@H]1O[C@@H]1O[C@H](CO)[C@@H](O)[C@H](O)[C@H]1O)C3 [Stevioside]
Quality of sweet taste (comment) [1, 9]: Bitter | Quality of sweet taste: number of panelists giving the comment [1, 9]: (20 of 20)

C=C1C[C@@]23CC[C@H]4[C@@](C)(CCC[C@@]4(C)C(=O)O[C@@H]4O[C@H](CO)[C@@H](O)[C@H](O)[C@H]4O)[C@@H]2CC[C@]1(O[C@@H]1O[C@H](CO)[C@@H](O)[C@H](O[C@@H]2O[C@H](CO)[C@@H](O)[C@H](O)[C@H]2O)[C@H]1O[C@@H]1O[C@H](CO)[C@@H](O)[C@H](O)[C@H]1O)C3 [Reb A, Rebaudioside A]
Taste Properties ([2]; 4° C.): more sweet | Taste Properties ([2]; room temperature): Delayed sweetness onset, significant lingering sweet | Overall evaluation: Satisfactory, number of panelists [1, 9]: (1 of 20) | Quality of sweet taste (comment) [1, 9]: Bitter | Quality of sweet taste: number of panelists giving the comment [1, 9]: (20 of 20) | Astringent taste: number of panelists detected the attribute [1]: 20 | Bitter taste: number of panelists detected the attribute [1]: 20 | Licorice taste: number of panelists detected the attribute [1]: 20 | Sweet Aftertaste: number of panelists detected the attribute [1]: 20

C=C1C[C@@]23CC[C@H]4[C@@](C)(CCC[C@@]4(C)C(=O)O[C@@H]4O[C@H](CO)[C@@H](O)[C@H](O)[C@H]4O[C@@H]4O[C@H](CO)[C@@H](O)[C@H](O)[C@H]4O)[C@@H]2CC[C@]1(O[C@@H]1O[C@H](CO)[C@@H](O)[C@H](O[C@@H]2O[C@H](CO)[C@@H](O)[C@H](O)[C@H]2O)[C@H]1O[C@@H]1O[C@H](CO)[C@@H](O)[C@H](O)[C@H]1O)C3 [Reb D, Rebaudioside D]
Taste Properties ([2]; 4° C.): more sweet | Overall evaluation: Satisfactory, number of panelists [1, 9]: (11 of 20) | Quality of sweet taste (comment) [1, 9]: Clean | Quality of sweet taste: number of panelists giving the comment [1, 9]: 9 of 20 | Astringent taste: number of panelists detected the attribute [1]: 3 | Bitter taste: number of panelists detected the attribute [1]: 3 | Licorice taste: number of panelists detected the attribute [1]: 2 | Sweet Aftertaste: number of panelists detected the attribute [1]: 5

OC[C@H]1O[C@@](CO)(O[C@H]2O[C@H](CO)[C@@H](O)[C@H](O)[C@H]2O)[C@@H](O)[C@@H]1O [Sucrose]
Overall evaluation: Satisfactory, number of panelists [1, 9]: (20 of 20) | Quality of sweet taste (comment) [1, 9]: Clean | Quality of sweet taste: number of panelists giving the comment [1, 9]: 20 of 20

C=C1C[C@@]23CCC4[C@](C)(C(=O)OC5OC(CO)C(O)C(OC6OC(CO)C(O)C(O)C6O)C5OC5OC(CO)C(O)C(O)C5O)CCC[C@@]4(C)[C@@H]2CCC1(OC1OC(CO)C(O)C(OC2OC(CO)C(O)C(O)C2O)C1OC1OC(CO)C(O)C(O)C1O)C3 (stereo partly drawn) [Reb X, 13-[(2-O-β-D-glucopyranosyl-3-O-β-D-glucopyranosyl-β-D-glucopyranosyl)oxy]ent kaur-16-en-19-oic acid-[(2-O-β-D-glucopyranosyl-3-O-β-D-glucopyranosyl-β-D-glucopyranosyl)ester]]
Off-flavors ([3]; Reb X 12.5-600 ppm in citric buffer at 4° C.): No off-flavors at any Reb X concentrations in CB at 4 °C were detected, except at least ca. 300 ppm which noticeably had a longer sweetness lingering | Sweetness intensity difference between RT and 4° C. ([3]; Reb X concentration range, direct comparison with control sucrose at similar temperatures): no significant sweetness intensity difference between RT and 4 °C | Sweetness tasting quality ([3]; all Reb X concentrations (12.5-600 ppm), citric buffer): pleasant sweetness tasting quality with a slight delay of sweetness onset and no bitterness | Taste Properties ([2]; room temperature): temporal profile and quality similar to sucrose; also recorded: Clean sweet taste. Broad and full sweetness profile; also recorded: Moderate sweetness linger aftertaste similar to aspartame | Astringency, sweetness depth and bitterness notes ([2]; 500 ppm, citrate buffer system, compared with Reb A): did not have the astringency or sweetness intense (depth) and bitterness notes compared to that of the Reb A | Taste quality compared with Reb A and Reb D ([2]; 500 ppm, citric buffer): much better than Reb A or Reb D | Tasting quality, temporal profile and sweetness linger ([2]; 500 ppm, citric buffer, compared with Reb A): did not display a pure sugar-like tasting quality but rather contained a fatty-like or broader sweet temporal profile and less sweetness linger than that of Reb A | Solubility and appearance [4]: very soluble and clear (colorless) | Quality of sweet taste (comment) [1, 9]: Clean | Taste profile compared with known steviol glycosides ([1]; 500 ppm, acidified water pH 3.0, 20 panelists): superior taste profile to already known steviol glycosides | Taste properties compared with Reb A drink ([5]; flavored zero calorie black tea drink, 250 ppm): much cleaner in finish with less sweetness linger and a more rounded overall sweetness profile | Taste properties compared with Reb A drink ([5]; zero calorie enhanced water drink, 200 ppm): cleaner in finish and had reduced sweetness linger and a more rounded overall sweetness taste quality | Reb X level closest in sweetness level to a 11.5 Brix high fructose corn syrup sweetened orange flavored sparkling beverage ([5]; zero calorie orange-flavored sparkling beverage base): 500 ppm | Taste compared with Reb A-containing formulations ([5]; zero calorie orange-flavored sparkling beverage, Reb X 400 to 750 ppm in 50 ppm increments): tasted significantly better than comparable Reb A-containing formulations | Sweetness onset, non-sweet taste and bitterness lingering compared with Reb A ([6]; acidified water (250 ppm citric acid, pH 3.2), 23 panel members, FIG. 12): faster sweetness onset, reduced non-sweet taste (bitterness, sour, astringency) and bitterness lingering | Sweetness compared with Reb A ([6]; acidified water (250 ppm citric acid, pH 3.2), Reb X 0.0423% vs Reb A 0.0510%, 23 panel members, FIG. 12): perception of higher sweetness of Reb X over Reb A is significant | Bitterness, astringency and bitter lingering compared with Reb A ([6]; filtered water, Reb X 0.0423% vs Reb A 0.0510%, 34 panel members, scale 0-10, FIG. 11): reduced perception of bitterness, astringency and bitter lingering compared to Reb A | Reb X Concentration matching the sucrose reference [7]: 48 ppm | Solubility, initial solubility test ([8]; 500 ppm in citrate buffer, compared with Reb D and Reb A): similar, limited but significantly greater solubility than that of Reb D and significantly less solubility than Reb A | Estimated time to solubilize ([8]; Reb X 0.01% in carbon-treated water): 15 min | Estimated time to solubilize ([8]; Reb X 0.01% in citrate buffer): 25 min | Estimated time to solubilize ([8]; Reb X 0.02% in carbon-treated water): 25 min | Estimated time to solubilize ([8]; Reb X 0.02% in citrate buffer): 25 min | Estimated time to solubilize ([8]; Reb X 0.04% in carbon-treated water): 33 min | Estimated time to solubilize ([8]; Reb X 0.04% in citrate buffer): 35 min | Estimated time to solubilize ([8]; Reb X 0.05% in carbon-treated water): 39 min | Estimated time to solubilize ([8]; Reb X 0.05% in citrate buffer): 42 min | Estimated time to solubilize ([8]; Reb X 0.075% in carbon-treated water): 55 min | Estimated time to solubilize ([8]; Reb X 0.075% in citrate buffer): 55 min | Estimated time to solubilize ([8]; Reb X 0.10% in carbon-treated water): 106 min | Estimated time to solubilize ([8]; Reb X 0.10% in citrate buffer): 106 min | Estimated time to solubilize ([8]; Reb X 0.15% in carbon-treated water): Insoluble after 20 hours | Estimated time to solubilize ([8]; Reb X 0.15% in citrate buffer): Insoluble after 20 hours
